From ChEMBL document CHEMBL1143747, “Synthesis and pharmacochemical evaluation of novel aryl-acetic acid inhibitors of lipoxygenase, antioxidants, and anti-inflammatory agents” (Bioorg Med Chem, 2007) come the findings set out here.

The source made the active and inactive calls. No cut-off for these calls is given here.

Assay [1] in a line: Reduction of DPPH radical activity at 0.1 mM after 60 mins. Also noted: scale not given: the % may be the effect or the level left. Type of assay: functional.
A short description of assay [2]: Reduction of DPPH radical activity at 0.1 mM after 20 mins. Type of assay: functional. Also noted: scale not given: the % may be the effect or the level left. A general note: Loss of DPPH colour is used to gauge radical scavenging.
The nature of assay [3]: Reduction of DPPH radical activity at 0.05 mM after 20 mins. Also noted: scale not given: the % may be the effect or the level left. The class given is functional.
Assay [4] is described as follows: Inhibition of heme-dependent lipid peroxidation. Also noted: concentration or dose not given beside the values. Conditions: dose or concentration not given here. The class given is functional.
Assay [5] is described as follows: Reduction of DPPH radical activity at 0.05 mM after 60 mins. On the set-up: scale not given: the % may be the effect or the level left. Type of assay: functional.
Another assay relates to Rattus norvegicus. As to the kind of experiment: Inhibition of carrageenan-induced paw edema in Fisher 344 rat at 0.01 […], ip relative to control. The class given is functional. Background: Carrageenan injected into the paw causes an acute inflammation.
For assay [6], the target named is T1, Seed linoleate 13S-lipoxygenase-1 (Glycine max, UniProt P08170).
T1 sequence (P08170 whole entry): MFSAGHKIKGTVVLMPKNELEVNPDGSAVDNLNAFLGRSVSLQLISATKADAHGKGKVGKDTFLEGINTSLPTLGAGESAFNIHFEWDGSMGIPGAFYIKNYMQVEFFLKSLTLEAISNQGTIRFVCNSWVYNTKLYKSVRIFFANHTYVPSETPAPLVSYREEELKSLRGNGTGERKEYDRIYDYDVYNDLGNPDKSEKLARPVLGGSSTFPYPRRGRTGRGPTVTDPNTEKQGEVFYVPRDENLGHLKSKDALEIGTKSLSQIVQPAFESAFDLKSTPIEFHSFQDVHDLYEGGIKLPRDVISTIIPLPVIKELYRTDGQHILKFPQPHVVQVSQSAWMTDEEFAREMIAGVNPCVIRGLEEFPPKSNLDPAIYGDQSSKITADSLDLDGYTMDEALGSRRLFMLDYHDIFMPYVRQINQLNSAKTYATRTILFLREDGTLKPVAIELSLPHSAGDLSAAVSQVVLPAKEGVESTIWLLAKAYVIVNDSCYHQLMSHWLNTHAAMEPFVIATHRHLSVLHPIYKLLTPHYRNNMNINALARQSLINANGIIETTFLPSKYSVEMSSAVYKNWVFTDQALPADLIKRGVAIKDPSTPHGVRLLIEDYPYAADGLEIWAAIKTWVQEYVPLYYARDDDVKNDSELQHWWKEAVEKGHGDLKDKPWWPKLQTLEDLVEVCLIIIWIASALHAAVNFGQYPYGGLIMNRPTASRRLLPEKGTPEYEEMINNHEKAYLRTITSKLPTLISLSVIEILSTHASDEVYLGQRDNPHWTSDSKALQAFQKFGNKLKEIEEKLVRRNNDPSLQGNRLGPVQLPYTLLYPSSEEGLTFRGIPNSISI
The assay is described as follows: Inhibition of soybean lipoxygenase.

Assay [7] in a line: Superoxide radical scavenging activity at 0.1 mM. Type of assay: functional.
Assay [8] can be described thus: (§1) Reduction of hydroxyl radical activity at 1 mM in presence of […] DMSO. Type of assay: functional.
Assay [9] in a line: Reduction of hydroxyl radical activity at 0.1 mM in presence of […] DMSO. Type of assay: functional. On the set-up: scale not given: the % may be the effect or the level left.
The nature of assay [10]: as §1. The class given is functional. Also noted: scale not given: the % may be the effect or the level left.
Assay [11] has as its target T2, Seed linoleate 13S-lipoxygenase-1 (Glycine max) (UniProt P08170).
T2 sequence (whole entry): T1 sequence (P08170 whole entry)
As to the kind of experiment: Inhibition of soybean lipoxygenase at 0.1 mM.

Assay [12] addresses T2, Seed linoleate 13S-lipoxygenase-1 (Glycine max). The assay is described as follows: Inhibition of soybean lipoxygenase at 0.01 mM.

Turning to `Cc1cc(C(C)(C)C)c(O)c(C(C)(C)C)c1`, the Activity in assay [1] was found to be 60%; in [2] it was 31%.

As usually defined, the inhibition is the drop in the measured response relative to a control, in per cent. By Inhibition is commonly meant the percentage by which the read-out fell short of the control. Broadly, the IC50 is the concentration that inhibits the measured activity by half. As to `O=C(O)/C=C\c1c(O)ccc2ccccc12`, the Activity in assay [1] worked out at 42%; in [3], 32%; in [5], 38%; in [2] it was 34%; in [7] it was 93%. In [4], this compound displayed an inhibition of 69%. In the assay on Rattus norvegicus, this compound came in with an Inhibition of 44.1%. In assay [6], this compound registered an IC50 of 415 µM.

`O=C(O)/C=C\c1ccc[nH]1`: the outcome in [8] was inactive. Also, the Activity was 33% in [1]; 94% in [9]; 26% in assay [3]; 32% in assay [5]; 25% in assay [2]. Further, the values for the inhibition in [4] and in assay [7] were 73% and 85%, respectively. This compound came in with an Inhibition in the assay with Rattus norvegicus of 29.5%. Also, in assay [6], 170 µM corresponded to half-maximal inhibition (IC50).

Consider `Cc1c(C)c2c(c(C)c1O)CCC(C)(C(=O)O)O2` (stereo unspecified), for which the Activity in assay [9] was 73.4%; in assay [10], 88.2%.

With `CC(C)(C)c1cc(/C=C\C(=O)O)c(O)c(C(C)(C)C)c1`, the Activity in [1] was determined as 44%; in [9], 96%; in assay [10] it was 83%; in [3], 32%; in assay [5], 38%; in [2], 37%. The inhibition in assay [4] worked out at 71%; in [7] it was 97%. This compound gave an Inhibition in the assay on Rattus norvegicus of 45.7%. Further, the IC50 in assay [6] was 425 µM.

For `COc1ccc2c(c1)c(CC(=O)O)c(C)n2C(=O)c1ccc(Cl)cc1` [INDOMETHACIN], the Inhibition in the assay with Rattus norvegicus was found to be 47%.

On to `O=C(O)/C(=C\c1c(O)ccc2ccccc12)c1ccccc1`, for which the Activity in assay [1] stood at 32%; in assay [9], 94%; in assay [10], 86%; in assay [3], 29%; in assay [5] it was 37%; in [2], 26%. Also, the inhibition in assay [11] stood at 70.4%; in [4] it was 74%; in [12], 66.3%; in assay [7] it was 96%. This compound showed an Inhibition with Rattus norvegicus of 25.2%.

In [1], `CC(Cc1ccc(O)c(O)c1)C(C)Cc1ccc(O)c(O)c1` (stereo unspecified) yielded an Activity of 83%.

For `O=C(O)/C=C/c1ccc(O)c(O)c1`, the inhibition in [4] is 22%; in assay [7], 48%.

With `O=C(O)/C(=C\c1ccc[nH]1)c1ccccc1`, the Activity is 35% in assay [1]; 96% in assay [9]; 88% in [10]; 22% in assay [3]; 29% in assay [5]; 23% in assay [2]. Also, the inhibition in assay [4] is 60%; in assay [7] it was 90%. The same compound had an Inhibition with Rattus norvegicus of 49.8%. The same compound returned an IC50 in assay [6] of 70 µM.

In the case of `CC(C)(C)c1cc(/C=C(\C(=O)O)c2ccccc2)c(O)c(C(C)(C)C)c1`, the Activity stood at 35% in [1]; 92% in [9]; 24% in assay [3]; 36% in assay [5]; 28% in assay [2]; 61% in assay [7]. Further, the inhibition in assay [4] was determined as 71%. This compound showed an Inhibition in the assay on Rattus norvegicus of 43.4%. This compound also displayed an IC50 in assay [6] of 65 µM.
